Measurements taken from patent US11103525B2, “Idoxuridine and its analogs as neuroprotectans for the treatment of parkinsonism” (priority 2017, dated 2021).

Key:
N2a-GPR37-tGFP cells = assay: Cytoprotection against 6-OHDA (MTT assay), N2a-GPR37-tGFP cells; assay type: cell-based, mouse; conditions: 2 μM pretreatment 72 h, then 6-OHDA 24 h; compared with N2a-WT cells
Protocol: (§1) FIG. 6. GPR37-associated cytoprotection of Idoxuridine against parkinsonian drug 6-OHDA. N2a-WT and N2a-GPR37-tGFP cells were grown in differentiating medium containing either 2 μM idoxuridine, 0.1% DMSO (negative control) or 1 mM dbcAMP (positive control). 72 h later cells were treated with either 6-OHDA (10, 20, 35 100 μM) or vehicle control and incubated for 24 h. Cell viability was quantified by MTT assay. Data are pooled from three independent experiments with 6 technical replicates for each condition and are expressed as means+/−SD. To assess the […] effect of idoxuridine against 6-OHDA-toxicity data were analyzed using a 2-way ANOVA followed by a Bonferroni correction test. Each cell line was statistically analyzed separately, with pretreatment and 6-OHDA treatment as variables; or GPR37 expression and 6-OHDA-treatment as variables. For simplicity, only idoxuridine related significance is indicated; significances between positive and negative controls are not shown; ****p<0.0001, ***p<0.001, **p<0.01. Test compound (5 μL) of desired concentration (Idoxuridine, final concentration 2 μM); positive control (dibutyryl-cAMP, final concentration 1 mM); and negative control (DMSO, final concentration 0.1%) were plated in a 96-well plate. […] Absorbance was measured at 570 nm (formazan product) and at 650 nm (reference) using a Tecan Spark® 10M microplate reader. […]

N2a-WT cells = assay: Cytoprotection against 6-OHDA (MTT assay), N2a-WT cells; assay type: cell-based, mouse; conditions: 2 μM pretreatment 72 h, then 6-OHDA 24 h
Protocol: as §1

primary cortical neurons = assay: Cytoprotection against NMDA excitotoxicity (propidium iodide staining); assay type: cell-based, rat; conditions: 25 μM pretreatment 72 h or 48 h, NMDA 200 μM 30 min
Protocol: FIG. 7: Cytoprotection of Idoxuridine against excitotoxicity of NMDA. Mature primary neurons were pretreated with Idoxuridine (25 μM) or DMSO (ctrl cells) for 72 h or 48 h and subsequently exposed to NMDA (200 μM) for 30 min. Cell viability was assessed by propidium iodide (PI) staining. Both control and treated cells were incubated for 30 min with 6 μM PI which stains nuclei of dead cells. After extensive washing with Tyrode's buffer, samples were fixed and stained with DAPI to visualize all cell nuclei. PI positive cells were counted at several regions on coverslips and expressed as percentage of total cells visualized with DAPI stain. […] Data are expressed as means+/−SD and analyzed by one-way ANOVA with Dunnett's posthoc test. *p<0.001
Primary cortical neurons: Primary cortical neurons were prepared from E18 rat embryos. Cortices were isolated, cleared from meninges and dissociated after incubation in HBSS (Ca^2+ and Mg^2+-free) with 0.25% trypsin for 20 min at 37° C. […]
Mature primary neurons were pretreated with Idoxuridine (25 μM) or DMSO (ctrl cells) for 72 h or 48 h and subsequently exposed to NMDA (200 μM) for 30 min. Cell viability was assessed by propidium iodide (PI) staining. […] PI positive cells were counted at several regions on coverslips and expressed as percentage of total cells visualized with DAPI stain. […]

[1] = test system: GPR37-tGFP overexpressing cells; assay: Cytoprotection against MG132, GPR37-tGFP overexpressing cells; assay type: cell-based, mouse
Protocol: (§2) FIG. 8: Cytoprotection of Idoxuridine against MG132. MG132-induced proteasomal inhibition reduced cell viability. […] Data represented as mean+SD. Analysis performed via one-way ANOVA with Neuman-Keuls post-test for both Figures. *** indicates p<0.001. 2 mM 4-PBA used as a positive unspecific control. MG132 is a potent 26S proteasome inhibitor which increases protein accumulation, ROS leakage, induces cell cycle arrest and apoptosis.

wildtype cells = assay: Cytoprotection against MG132, wildtype cells; assay type: cell-based, mouse
Protocol: as §2

[2] = test system: GPR37-tGFP overexpressing cells; assay: Cytoprotection against Eeyarestatin (EeI), GPR37-tGFP overexpressing cells; assay type: cell-based, mouse
Protocol: FIG. 9: Cytoprotection of Idoxuridine against Eel. Eeyarestatin (Eel) is a potent inhibitor of endoplasmic reticulum associated protein degradation (ERAD) pathway, specifically targeting p97. Eel-mediated reduction of cell viability is counteracted by idoxuridine in both GPR37-tGFP overexpressing cells (A) and WT (B) cells. Data represented as mean+SD. Analysis performed via one-way ANOVA with Neuman-Keuls post-test for both Figures. *** indicates p<0.001.
Eeyarestatin (EeI) is a potent inhibitor of endoplasmic reticulum associated protein degradation (ERAD) pathway, specifically targeting p97.

[3] = test system: GPR37-tGFP overexpressing cells; assay: Cytoprotection against H2O2, GPR37-tGFP overexpressing cells; assay type: cell-based, mouse; conditions: in-well H2O2 0.00025%, compared with WT cells
Source text: FIG. 10: Cytoprotection of Idoxuridine against […]. H2O2 reduces cell viability by increasing oxidative stress. This effect was counteracted by idoxuridine in GPR37-tGFP overexpressing cells (A) and WT (B) cells. […] In-well H2O2 concentration used was 0.00025%. […]

SMILES: O=c1[nH]c(=O)n([C@H]2C[C@H](O)[C@@H](CO)O2)cc1I [Idoxuridine, 2′-deoxy-5-iodouridine]
- cytoprotective effect against 6-OHDA (cell viability, MTT) (N2a-GPR37-tGFP cells): significantly higher effect
- cytoprotective effect against 6-OHDA (cell viability, MTT) (N2a-WT cells): protective
- effect on excitotoxicity induced by NMDA (PI positive cells) (primary cortical neurons): significantly counteracted
- effect on MG132-induced reduction of cell viability [1]: potently counteracted
- effect on MG132-induced reduction of cell viability (wildtype cells): some neuroprotection
- effect on EeI-mediated reduction of cell viability [2]: counteracted
- effect on H2O2-induced reduction of cell viability [3]: significantly stronger
